Source: ChEMBL document CHEMBL3885861, “Open TG-GATES”

Species on record: Rattus norvegicus
Test: Open TG-GATES - Regimen: Daily Repeat
Assay type: toxicity, organism-based, Sprague-Dawley
Design: regimen Daily Repeat, gender Male, age 6 weeks
Conditions: in vivo, po, 150 mg/kg, route gavage, dose level High; for APTT / Bas / Eos / Fbg / Hb / Ht / Lym / MCH / MCHC / MCV / Mono / Neu / PT / Plat / RBC / Ret / WBC: tissue Blood; for KIDNEY_L / KIDNEY_R / KIDNEY_TOTAL: tissue Kidney; for LIVER: tissue Liver; for A/G / ALP / ALT / AST / BUN / CRE / Ca / Cl / DBIL / GLC / IP / K / LDH / Na / PL / RALB / TBIL / TC / TG / TP / gamma-GTP: tissue Plasma

`CN(C)CCC=C1c2ccccc2CCc2ccccc21` [AMITRIPTYLINE] gave a TERMINAL_BW (72 h, time 3 day) of 200.8 g, an APTT (72 h, time 3 day) of 15 s and a Bas (72 h, time 3 day) of 0.2%. It also gave an Eos (72 h, time 3 day) of 1.2%, a Fbg (72 h, time 3 day) of 288.6 mg/dL and a Hb (72 h, time 3 day) of 14.4 g/dL. The Ht (72 h, time 3 day) was 43.5%, the Lym (72 h, time 3 day) was 79.6% and the MCH (72 h, time 3 day) was 20.5 pg. It also gave an MCHC (72 h, time 3 day) of 33.2%, an MCV (72 h, time 3 day) of 61.8 fL and a Mono (72 h, time 3 day) of 2.4%. For the same molecule, the Neu (72 h, time 3 day) was 16.2%, the PT (72 h, time 3 day) was 16 s and the Plat (72 h, time 3 day) was 125 x10_4/uL. It also gave an RBC (72 h, time 3 day) of 705 x10_4/ul, a Ret (72 h, time 3 day) of 4.5% and a WBC (72 h, time 3 day) of 87.2 x10_2/uL. It also gave a KIDNEY_L (72 h, time 3 day) of 0.9 g, a KIDNEY_R (72 h, time 3 day) of 0.9 g and a KIDNEY_TOTAL (72 h, time 3 day) of 1.8 g. For the same molecule, the LIVER (72 h, time 3 day) was 9.1 g, the A/G (72 h, time 3 day) was 0.8 and the ALP (72 h, time 3 day) was 1755.4 IU/L. The ALT (72 h, time 3 day) was 45.4 IU/L, the AST (72 h, time 3 day) was 63 IU/L and the BUN (72 h, time 3 day) was 13.8 mg/dL. The CRE (72 h, time 3 day) was 0.2 mg/dL, the Ca (72 h, time 3 day) was 10.7 mg/dL and the Cl (72 h, time 3 day) was 106.2 meq/L. For the same molecule, the DBIL (72 h, time 3 day) was 0.016 mg/dL, the GLC (72 h, time 3 day) was 174.4 mg/dL and the IP (72 h, time 3 day) was 8 mg/dL. It also gave a K (72 h, time 3 day) of 4.4 meq/L, an LDH (72 h, time 3 day) of 86.2 IU/L and a Na (72 h, time 3 day) of 143.8 meq/L. The PL (72 h, time 3 day) was 155.8 mg/dL, the RALB (72 h, time 3 day) was 2.6 g/dL and the TBIL (72 h, time 3 day) was 0.052 mg/dL. The TC (72 h, time 3 day) was 94.2 mg/dL, the TG (72 h, time 3 day) was 93 mg/dL and the TP (72 h, time 3 day) was 5.8 g/dL. It also gave a gamma-GTP (72 h, time 3 day) of 0.6 IU/L, a TERMINAL_BW ([…], time 7 day) of 206.8 g and a TERMINAL_BW ([…], time 14 day) of 250.8 g. For the same molecule, the TERMINAL_BW ([…], time 28 day) was 303.4 g, the APTT ([…], time 7 day) was 16.2 s and the Bas ([…], time 7 day) was 0%. For the same molecule, the Eos ([…], time 7 day) was 1.4%, the Fbg ([…], time 7 day) was 413.4 mg/dL and the Hb ([…], time 7 day) was 15.3 g/dL. The Ht ([…], time 7 day) was 45.5%, the Lym ([…], time 7 day) was 70.8% and the MCH ([…], time 7 day) was 20.6 pg. It also gave an MCHC ([…], time 7 day) of 33.5%, an MCV ([…], time 7 day) of 61.6 fL and a Mono ([…], time 7 day) of 2.4%. It also gave a Neu ([…], time 7 day) of 24.6%, a PT ([…], time 7 day) of 15.9 s and a Plat ([…], time 7 day) of 108.8 x10_4/uL. It also gave an RBC ([…], time 7 day) of 740.8 x10_4/ul, a Ret ([…], time 7 day) of 3.1% and a WBC ([…], time 7 day) of 99.3 x10_2/uL. For the same molecule, the APTT ([…], time 14 day) was 16.2 s, the Bas ([…], time 14 day) was 0.6% and the Eos ([…], time 14 day) was 0.8%. For the same molecule, the Fbg ([…], time 14 day) was 326.6 mg/dL, the Hb ([…], time 14 day) was 15 g/dL and the Ht ([…], time 14 day) was 44.7%. It also gave a Lym ([…], time 14 day) of 76.6%, an MCH ([…], time 14 day) of 19.7 pg and an MCHC ([…], time 14 day) of 33.6%. It also gave an MCV ([…], time 14 day) of 58.6 fL, a Mono ([…], time 14 day) of 2.4% and a Neu ([…], time 14 day) of 19.2%. The PT ([…], time 14 day) was 16.6 s, the Plat ([…], time 14 day) was 110.7 x10_4/uL and the RBC ([…], time 14 day) was 763.4 x10_4/ul. It also gave a Ret ([…], time 14 day) of 2.8%, a WBC ([…], time 14 day) of 128.1 x10_2/uL and an APTT ([…], time 28 day) of 22.2 s. The Bas ([…], time 28 day) was 0.3%, the Eos ([…], time 28 day) was 1% and the Fbg ([…], time 28 day) was 311.3 mg/dL. It also gave a Hb ([…], time 28 day) of 15.8 g/dL, a Ht ([…], time 28 day) of 46.1% and a Lym ([…], time 28 day) of 82%. For the same molecule, the MCH ([…], time 28 day) was 19.1 pg, the MCHC ([…], time 28 day) was 34.3% and the MCV ([…], time 28 day) was 55.9 fL. It also gave a Mono ([…], time 28 day) of 1.7%, a Neu ([…], time 28 day) of 14% and a PT ([…], time 28 day) of 16.4 s. For the same molecule, the Plat ([…], time 28 day) was 97.9 x10_4/uL, the RBC ([…], time 28 day) was 824.3 x10_4/ul and the Ret ([…], time 28 day) was 2%. It also gave a WBC ([…], time 28 day) of 104.7 x10_2/uL, a KIDNEY_L ([…], time 7 day) of 0.9 g and a KIDNEY_R ([…], time 7 day) of 1 g. It also gave a KIDNEY_TOTAL ([…], time 7 day) of 1.9 g, a KIDNEY_L ([…], time 14 day) of 1 g and a KIDNEY_R ([…], time 14 day) of 1 g. For the same molecule, the KIDNEY_TOTAL ([…], time 14 day) was 2 g, the KIDNEY_L ([…], time 28 day) was 1.2 g and the KIDNEY_R ([…], time 28 day) was 1.2 g. For the same molecule, the KIDNEY_TOTAL ([…], time 28 day) was 2.4 g, the LIVER ([…], time 7 day) was 9.5 g and the LIVER ([…], time 14 day) was 12.8 g. It also gave an LIVER ([…], time 28 day) of 16.8 g, an A/G ([…], time 7 day) of 0.8 and an ALP ([…], time 7 day) of 1572.2 IU/L. The ALT ([…], time 7 day) was 42.6 IU/L, the AST ([…], time 7 day) was 64.2 IU/L and the BUN ([…], time 7 day) was 14.4 mg/dL. For the same molecule, the CRE ([…], time 7 day) was 0.2 mg/dL, the Ca ([…], time 7 day) was 10.6 mg/dL and the Cl ([…], time 7 day) was 104.8 meq/L. It also gave a DBIL ([…], time 7 day) of 0.008 mg/dL, a GLC ([…], time 7 day) of 169.2 mg/dL and an IP ([…], time 7 day) of 8 mg/dL. The K ([…], time 7 day) was 4.1 meq/L, the LDH ([…], time 7 day) was 68.2 IU/L and the Na ([…], time 7 day) was 143.8 meq/L. It also gave a PL ([…], time 7 day) of 144.6 mg/dL, an RALB ([…], time 7 day) of 2.7 g/dL and a TBIL ([…], time 7 day) of 0.042 mg/dL. The TC ([…], time 7 day) was 97 mg/dL, the TG ([…], time 7 day) was 29.6 mg/dL and the TP ([…], time 7 day) was 5.9 g/dL. For the same molecule, the gamma-GTP ([…], time 7 day) was 0.8 IU/L, the A/G ([…], time 14 day) was 0.8 and the ALP ([…], time 14 day) was 1690.2 IU/L. For the same molecule, the ALT ([…], time 14 day) was 39.8 IU/L, the AST ([…], time 14 day) was 59.2 IU/L and the BUN ([…], time 14 day) was 15.8 mg/dL. For the same molecule, the CRE ([…], time 14 day) was 0.2 mg/dL, the Ca ([…], time 14 day) was 10.9 mg/dL and the Cl ([…], time 14 day) was 104 meq/L. For the same molecule, the DBIL ([…], time 14 day) was 0.012 mg/dL, the GLC ([…], time 14 day) was 164.2 mg/dL and the IP ([…], time 14 day) was 7.6 mg/dL. The K ([…], time 14 day) was 4.3 meq/L, the LDH ([…], time 14 day) was 51.2 IU/L and the Na ([…], time 14 day) was 143.6 meq/L. For the same molecule, the PL ([…], time 14 day) was 135 mg/dL, the RALB ([…], time 14 day) was 2.6 g/dL and the TBIL ([…], time 14 day) was 0.042 mg/dL. For the same molecule, the TC ([…], time 14 day) was 78.6 mg/dL, the TG ([…], time 14 day) was 62.8 mg/dL and the TP ([…], time 14 day) was 6 g/dL. It also gave a gamma-GTP ([…], time 14 day) of 0.6 IU/L, an A/G ([…], time 28 day) of 0.9 and an ALP ([…], time 28 day) of 1692.3 IU/L. It also gave an ALT ([…], time 28 day) of 39.7 IU/L, an AST ([…], time 28 day) of 57.7 IU/L and a BUN ([…], time 28 day) of 14.7 mg/dL. For the same molecule, the CRE ([…], time 28 day) was 0.2 mg/dL, the Ca ([…], time 28 day) was 10.7 mg/dL and the Cl ([…], time 28 day) was 103.7 meq/L. The DBIL ([…], time 28 day) was 0.0167 mg/dL, the GLC ([…], time 28 day) was 174 mg/dL and the IP ([…], time 28 day) was 7.1 mg/dL. The K ([…], time 28 day) was 4 meq/L, the LDH ([…], time 28 day) was 50 IU/L and the Na ([…], time 28 day) was 143 meq/L. It also gave a PL ([…], time 28 day) of 97.7 mg/dL, an RALB ([…], time 28 day) of 2.9 g/dL and a TBIL ([…], time 28 day) of 0.0467 mg/dL. It also gave a TC ([…], time 28 day) of 56.3 mg/dL, a TG ([…], time 28 day) of 35.3 mg/dL and a TP ([…], time 28 day) of 6.3 g/dL. For the same molecule, the gamma-GTP ([…], time 28 day) was 0.7 IU/L.
